Measurements as given in patent publication US10280179B2, “Spiroquinoxaline derivatives as inhibitors of non-apoptotic regulated cell-death” (Helmholtz Zentrum Munchen—Deutches Forschungszentrum Fur …, priority 2013, dated 2019).
Like-named read-outs stand apart in the source and are kept apart here.

What was measured:
Format in all cases: cell-based
Pfa1 cells = experiment: Inhibition of non-apoptotic cell death after tamoxifen-induced GPx4 knockout in a recombinant cell line (Example B.4); conditions: Mus musculus, read-out: Pfa1/TAM IC50
Method in brief: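 Immortalised murine fibroblasts with tamoxifen-inducible CreERT2 for ablation of both GPx4 copies (Pfa1 cells) received tamoxifen on day 0 together with test compound. Cell survival was measured by AlamarBlue after 72 hours.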

[1] = system: human neuroblastoma cell line SH-SY5Y; experiment: Inhibition of BSO-induced non-apoptotic cell death (Example B.1); conditions: SH-SY5Y cells, 72 hours
From the text: Inhibition of BSO-Induced Non-Apoptotic Cell Death by Compounds Disclosed Herein
L-Buthionine sulfoximine (BSO) is a well-known glutathione (GSH) depletory, which inhibits gamma-glutamyl-cysteine-synthetase, the enzyme catalyzing the rate-limiting step in GSH biosynthesis. The human neuroblastoma cell line SH-SY5Y is sensitive to BSO-induced intracellular glutathione depletion, which causes high levels of reactive oxygen species (ROS) and cellular stress mimicking cellular conditions following ischemia (cf., e.g., Yamada et al., Neurochem. Int. 59:1003-9 (2011)).
Compounds disclosed herein were evaluated for their ability to promote cell survival upon administration of a lethal dose of BSO to cell-culture medium. Briefly, SH-SY5Y cells (ATCC® CRL-2266™) were propagated in DMEM supplemented with 10% FBS/1% Penicillin-Streptomycin, and then seeded onto 96-well plates at a concentration of 750 cells/well in 100 μL of media, to which BSO (Sigma Aldrich) was added (to a final concentration of 50 μM) together with increasing concentrations of the compound to be tested, and the plates incubated at 37° C./5% CO2 for 72 hours. Compound dilutions (0.5 pM to 100 μM) were prepared from 10 mM stocks dissolved in DMSO and diluted in media. Cells treated with BSO alone were used as negative control and alpha-Tocopherol (Sigma Aldrich) was used as positive control. Compound concentrations were tested in triplicate. After incubation, cell survival was detected using the live/dead cell assay AquaBluer™ (MultiTarget Pharmaceuticals) and quantified using a fluorescence plate reader (excitation filter: 530-560 nm/emission filter: 590 nm) (SpectraMax M4; Molecular Devices). Fluorescence data so obtained was normalised to the percentage of surviving cells and IC50 values calculated using the GraphPad Prism (GraphPad Software, Inc) software package.

[2] = Cellular toxicity, same assay as Example B.4 without TAM (Example B.5); conditions: mouse; Pfa1 cells without TAM; read-out: TC50 (the source's name)
From the text: Cellular Toxicity of Compounds of the Invention
An estimate of the toxicity for compounds of the invention was obtained by using the same assay as described in Example B.4, but without the addition of TAM. […] Such TC50 values obtained for certain compounds disclosed herein, together with an approximate therapeutic window (estimated by dividing each TC50 by the corresponding IC50 determined from example B.4) are shown in Table 3.

[3] = system: mouse hippocampal cell line (Ht22); experiment: Inhibition of glutamate-induced non-apoptotic cell death (Example B.2); conditions: HT-22, Ht22 cells
Method in brief: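 Ht22 cells (2,000/well, DMEM/10% FBS) seeded together with 5 mM glutamate and compound (0.5 pM to 100 μM, triplicate), incubated 72 h at 37 °C/5% CO2. Cell survival then quantified; glutamate alone as negative control, alpha-tocopherol as positive control.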

[4] = 50 μM BSO, read-out: SH-SY5Y/BSO IC50
[5] = glutamate-induced cell death, read-out: Ht22/GLU
[6] = BSO 50 μM, cell survival (AquaBluer), read-out: SH-SY5Y/BSO (Example B.1) IC50
[7] = glutamate 5 mM, 72 hours, cell survival, read-out: Ht22/GLU (Example B.2) IC50

Row | Compound | IC50 (Pfa1 cells) [nM] | IC50 [1, 4] [nM] | CC50 [2] [nM] | IC50 [3, 5] [nM] | IC50 [1, 6] [nM] | IC50 [3, 7] [nM]
1 | Cc1cccc(CNC2=Nc3cc(Cl)c(Cl)cc3NC23CCCCCC3)c1 [C-267] | < 200 | < 100 | 10000 to 20000 | < 500 | – | –
2 | Clc1ccc(CNC2=Nc3ccccc3NC23CCNCC3)cc1 [N-3] | < 10 | < 50 | 5000 to 10000 | < 50 | – | –
3 | Cc1ccccc1CNC1=Nc2ccccc2NC12CCNCC2 [N-10] | < 100 | < 20 | 5000 to 10000 | < 50 | ~5 | 10 to 50
4 | FC(F)(F)c1cccc(CNC2=Nc3ccccc3NC23CCNCC3)c1 [N-23] | < 50 | < 20 | 20000 to 50000 | < 50 | – | –
5 | Fc1cc(Cl)ccc1CNC1=Nc2ccccc2NC12CCNCC2 [N-61] | < 50 | < 50 | 20000 to 50000 | < 50 | – | –
6 | CN1CCC2(CC1)Nc1ccccc1N=C2NCc1cccc(Cl)c1 [N-90] | < 20 | < 50 | 10000 to 20000 | < 200 | – | –
7 | CC(=O)N1CCC2(CC1)Nc1ccccc1N=C2NCc1cccc(Cl)c1 [N-99] | < 1000 | < 200 | 50000 to 100000 | < 1000 | – | –
8 | Fc1cc2c(cc1F)NC1(CCNCC1)C(NCc1cccc(Cl)c1)=N2 [N-117] | < 50 | < 10 | 1000 to 2000 | < 50 | – | –
9 | CN1CCC2(CC1)Nc1ccccc1N=C2NCc1ccccc1 [N-204] | < 500 | < 50 | 20000 to 50000 | < 500 | – | –
10 | Clc1cc2c(cc1Cl)NC1(CCNCC1)C(NCc1ccccc1)=N2 [N-205] | < 10 | < 20 | 1000 to 2000 | < 50 | – | –
11 | Cc1cc2c(cc1C)NC1(CCNCC1)C(NCc1ccccc1)=N2 [N-210] | < 10 | < 50 | 2000 to 5000 | < 50 | – | –
12 | Cc1cc(C)cc(CNC2=Nc3ccccc3NC23CCNCC3)c1 [N-217] | < 100 | < 50 | 20000 to 50000 | < 50 | – | –
13 | Clc1cccc(CNC2=Nc3cc4c(cc3NC23CCNCC3)OCCO4)c1 [N-219] | < 1000 | < 500 | 20000 to 50000 | < 1000 | – | –
14 | c1ccc(C(CNC2=Nc3ccccc3NC23CCNCC3)c2ccccc2)cc1 [N-220] | < 50 | < 50 | 2000 to 5000 | < 20 | – | –
15 | Fc1cc2c(cc1F)NC1(CCNCC1)C(NCc1ccccc1)=N2 [N-223] | < 50 | < 50 | 20000 to 50000 | < 50 | – | –
16 | CN1CCC2(CC1)Nc1cc(Cl)c(Cl)cc1N=C2NCc1ccccc1 [N-230] | < 10 | < 10 | 500 to 1000 | < 10 | – | –
17 | Fc1cccc(F)c1CNC1=Nc2ccccc2NC12CCNCC2 [N-231] | < 50 | < 100 | 10000 to 20000 | < 50 | – | –

Row | Compound | IC50 (Pfa1 cells) [nM] | IC50 [1, 4] [nM] | CC50 [2] [nM] | IC50 [3, 5] [nM] | IC50 [1, 6] [nM] | IC50 [3, 7] [nM]
18 | CC1CC2(CCN1)Nc1ccccc1N=C2NCc1cccc(Cl)c1 (centres unmarked) [N-239] | < 1000 | < 50 | 5000 to 10000 | < 200 | – | –
19 | CC1CC2(CCN1)Nc1ccccc1N=C2NCc1ccccc1 (centres unmarked) [N-240] | < 500 | < 100 | 10000 to 20000 | < 500 | – | –
20 | Cc1cc2c(cc1C)NC1(CCNCC1)C(NCc1cccc(C(F)(F)F)c1)=N2 [N-251] | < 100 | < 10 | 500 to 1000 | < 50 | – | –
21 | CC1CN(C)CCC12Nc1ccccc1N=C2NCc1ccccc1 (centres unmarked) [N-256] | < 500 | < 50 | 10000 to 20000 | < 500 | – | –
22 | Cc1cc2c(cc1C)NC1(CCNCC1)C(NCc1cccc(F)c1)=N2 [N-257] | < 100 | < 20 | 1000 to 2000 | < 100 | – | –
23 | Clc1ccc(CNC2=Nc3cc(Cl)c(Cl)cc3NC23CCNCC3)cc1Cl [N-258] | < 100 | < 20 | 100 to 200 | < 50 | – | –
24 | Fc1cc2c(cc1F)NC1(CCNCC1)C(NCc1ccccc1Cl)=N2 [N-259] | < 50 | < 10 | 1000 to 2000 | < 50 | – | –
25 | FC(F)(F)c1cccc(CNC2=Nc3cc(Cl)c(Cl)cc3NC23CCNCC3)c1 [N-260] | < 20 | < 20 | 500 to 1000 | < 50 | – | –
26 | CCCCCCCCCCCCN1CCC2(CC1)Nc1ccccc1N=C2NCc1ccccc1 [N-261] | < 100 | < 20 | 2000 to 5000 | < 200 | – | –
27 | Cc1cc(C)cc(CNC2=Nc3cc(C)c(C)cc3NC23CCNCC3)c1 [N-262] | < 50 | < 20 | 500 to 1000 | < 50 | – | –
28 | Clc1ccccc1CNC1=Nc2ccccc2NC12CCOCC2 [O/S-1] | < 1000 | < 500 | 50000 to 100000 | < 1000 | – | –
29 | Clc1cccc(CNC2=Nc3ccccc3NC23CCOCC3)c1 [O/S-2] | < 500 | < 200 | 20000 to 50000 | < 1000 | – | –
30 | Fc1ccc(CNC2=Nc3ccccc3NC23CCOCC3)cc1 [O/S-6] | < 1000 | < 500 | 50000 to 100000 | < 500 | 68.3 | 218
31 | Clc1cccc(CNC2=Nc3cc(Cl)c(Cl)cc3NC23CCOCC3)c1 [O/S-94] | < 50 | < 50 | 10000 to 20000 | < 500 | – | –
32 | Clc1cccc(CNC2=Nc3ccccc3NC23CCSCC3)c1 [O/S-168] | < 200 | < 100 | 20000 to 50000 | < 500 | – | –
33 | c1ccc(CNC2=Nc3ccccc3NC23CCOCC3)cc1 [O/S-337] | < 5000 | < 500 | 50000 to 100000 | < 5000 | – | –
34 | c1ccc(CNC2=Nc3ccccc3NC23CCSCC3)cc1 [O/S-338] | < 1000 | < 500 | 50000 to 100000 | < 5000 | – | –
